# According to the supplement of paper PMC13380429:
# Assays:
# Conditions in all cases: 72 h
# [1] = tested on: HepG2; assay: drug sensitivity score (DSS) for viability; higher = more toxic; extreme values may be limits of the assay
# [2] = tested on: Caco-2; assay: as above
# [3] = tested on: U2OS; assay: as above
# [4] = tested on: Calu-3; assay: as above
# [5] = tested on: Vero E6; assay: as above
# [6] = tested on: HepG2; assay: cell viability relative to DMSO; higher = less toxic
# [7] = tested on: Caco-2; assay: as above
# [8] = tested on: U2OS; assay: as above
# [9] = tested on: Calu-3; assay: as above
# [10] = tested on: Vero E6; assay: as above
# [11] = tested on: HepG2; assay: relative viability EC50 (midpoint between 100% and the lowest measured viability); higher = less toxic
# [12] = tested on: Caco-2; assay: as above
# [13] = tested on: U2OS; assay: as above
# [14] = tested on: Calu-3; assay: as above
# [15] = tested on: Vero E6; assay: as above
Structure (SMILES),drug sensitivity score [1],drug sensitivity score [2],drug sensitivity score [3],drug sensitivity score [4],drug sensitivity score [5],cell viability ([6]; 1 nM),cell viability ([6]; 10 nM),cell viability ([6]; 100 nM),cell viability ([6]; 1000 nM),cell viability ([6]; 10000 nM),cell viability ([7]; 1 nM),cell viability ([7]; 10 nM),cell viability ([7]; 100 nM),cell viability ([7]; 1000 nM),cell viability ([7]; 10000 nM),cell viability ([8]; 1 nM),cell viability ([8]; 10 nM),cell viability ([8]; 100 nM),cell viability ([8]; 1000 nM),cell viability ([8]; 10000 nM),cell viability ([9]; 1 nM),cell viability ([9]; 10 nM),cell viability ([9]; 100 nM),cell viability ([9]; 1000 nM),cell viability ([9]; 10000 nM),cell viability ([10]; 1 nM),cell viability ([10]; 10 nM),cell viability ([10]; 100 nM),cell viability ([10]; 1000 nM),cell viability ([10]; 10000 nM),relative viability EC50 [11],relative viability EC50 [12],relative viability EC50 [13],relative viability EC50 [14],relative viability EC50 [15]
CCC[S+]([O-])c1ccc2[nH]c(NC(=O)OC)nc2c1 (stereo not given) [albendazole-oxide],0.2,0,0,0,0,107%,103%,98%,106%,83.7%,101%,98.8%,96.6%,101%,102%,105%,101%,101%,99.6%,103%,114%,104%,103%,95.7%,107%,103%,104%,102%,101%,94%,> 10 µM,> 10 µM,> 10 µM,> 10 µM,> 10 µM
O=C1c2cccc(O)c2C(=O)c2c(O)cc(CO)cc21 [aloe-emodin],0,0,0,0,0,95%,100%,90.6%,105%,95.2%,99.3%,104%,98.8%,92.4%,91.8%,97%,98%,98.6%,96.9%,102%,93.4%,92.5%,103%,97.8%,97.6%,103%,104%,101%,102%,98.5%,> 10 µM,> 10 µM,> 10 µM,> 10 µM,> 10 µM
CCCN(CCC)C(=O)Cc1c(-c2ccc(Cl)cc2)nc2ccc(Cl)cn12 [alpidem],0,0,0,0,0,92.5%,94.6%,96.6%,102%,95.1%,91.5%,103%,102%,104%,100%,92.6%,97.4%,95.9%,104%,112%,95.7%,96.4%,96.2%,98.9%,107%,102%,99.6%,104%,97.4%,112%,> 10 µM,> 10 µM,> 10 µM,> 10 µM,> 10 µM
O=C1c2c(O)cccc2Cc2cccc(O)c21 [anthralin],0,0,0,0,0,90.2%,103%,119%,105%,92.3%,102%,95.8%,97.3%,96.9%,93.4%,92.3%,97.6%,97%,98.8%,102%,103%,98.5%,89.8%,95.9%,108%,102%,88.7%,96%,78.3%,100%,> 10 µM,> 10 µM,> 10 µM,> 10 µM,> 10 µM
C[N+]1([O-])[C@@H]2CC[C@H]1C[C@@H](OC(=O)C(CO)c1ccccc1)C2 (stereo not given in full) [atropine-oxide],0,0,0,0,0,88%,99.2%,95.8%,98.6%,94.5%,84%,96.6%,99.3%,90.2%,93.9%,97.4%,107%,101%,102%,96.5%,97.6%,93.3%,98.6%,94.4%,102%,88.2%,103%,102%,111%,95.5%,> 10 µM,> 10 µM,> 10 µM,> 10 µM,> 10 µM
C[C@H]1C[C@H]2[C@@H]3CCC4=CC(=O)C=C[C@]4(C)[C@@]3(Cl)[C@@H](O)C[C@]2(C)[C@@]1(O)C(=O)CO [beclomethasone],0,0,0,0,0,92.7%,110%,96.7%,106%,113%,108%,88.6%,95.2%,98.4%,112%,97.5%,92.9%,101%,95.8%,94%,102%,97.3%,103%,95.3%,91.5%,94.4%,90.4%,93.5%,99.8%,110%,> 10 µM,> 10 µM,> 10 µM,> 10 µM,> 10 µM
NC[C@H]1O[C@H](O[C@H]2[C@H](O)[C@@H](O[C@H]3O[C@H](CO)[C@@H](O)[C@H](N)[C@H]3O)[C@H](N)C[C@@H]2N)[C@H](N)[C@@H](O)[C@@H]1O [bekanamycin],0,0,0,0,0,94.7%,97.8%,103%,94.4%,99.1%,103%,101%,95.9%,110%,100%,95.7%,103%,97.5%,101%,97.7%,111%,93%,97.8%,111%,97.3%,98.1%,102%,99.2%,97.4%,108%,> 10 µM,> 10 µM,> 10 µM,> 10 µM,> 10 µM
O=C(O)c1ccc(NC(=O)[C@H](Cc2ccc(O)cc2)NC(=O)c2ccccc2)cc1 [bentiromide],0,0,0,0,0,91.9%,116%,102%,106%,102%,92.1%,92%,92.3%,87%,104%,105%,102%,107%,99.5%,108%,107%,101%,104%,95.4%,95%,93.5%,107%,94.4%,99%,106%,> 10 µM,> 10 µM,> 10 µM,> 10 µM,> 10 µM
CCCCCCCCCCCCC[N+](C)(C)Cc1ccccc1 [benzalkonium],3.4,3.9,5.9,3.6,0,96.1%,108%,102%,116%,22.9%,102%,102%,110%,108%,19.5%,97.7%,91.8%,102%,92.9%,13.7%,104%,98.9%,97%,98.8%,37.3%,89%,101%,96.1%,105%,92.4%,3.95 µM,3.62 µM,2.49 µM,3.02 µM,> 10 µM
C[N+](C)(C)CC(=O)O [betaine],0,0,0,0,0,96.3%,89.1%,108%,98.6%,106%,99.7%,90%,93.5%,96.9%,87.1%,99.5%,102%,98.8%,104%,96.7%,101%,95.8%,106%,91.4%,98.7%,115%,100%,104%,107%,98.9%,> 10 µM,> 10 µM,> 10 µM,> 10 µM,> 10 µM
CCCC(=O)N1CCCN(c2nc(N)c3cc(OC)c(OC)cc3n2)CC1 [bunazosin],0,0,0,0,0,94.7%,99.3%,103%,94.3%,99.3%,108%,96.4%,101%,101%,99.7%,95.4%,103%,101%,96.7%,98.2%,102%,101%,105%,92%,115%,104%,105%,102%,99.3%,97.3%,> 10 µM,> 10 µM,> 10 µM,> 10 µM,> 10 µM
O=C(O)/C=C/c1ccc(O)c(O)c1 [caffeic-acid],0,0,0,0,0,101%,104%,106%,97.5%,105%,89%,92.8%,90.9%,94.7%,108%,94%,100%,95.9%,100%,105%,93.1%,111%,109%,95%,102%,99.1%,96.7%,102%,94.1%,104%,> 10 µM,> 10 µM,> 10 µM,> 10 µM,> 10 µM
C[C@]12CCC(=O)C=C1C=C[C@@H]1[C@@H]2CC[C@@]2(C)[C@H]1CC[C@@]21CCC(=O)O1 [canrenone],0,0,0,0,0,106%,94.5%,89.1%,95.4%,97.5%,96.6%,100%,88.4%,99.1%,91.7%,101%,101%,93.2%,106%,95.8%,102%,111%,98.5%,104%,95%,99.3%,106%,101%,104%,101%,> 10 µM,> 10 µM,> 10 µM,> 10 µM,> 10 µM
